Laboratory results reported in patent US10786468B2, “Deacetylnemorone abietane diterpenoids for use in cancer treatment” (University of South Carolina, priority 2017, dated 2020).

Experiments:
[1] = test system: A2780ADR (doxorubicin resistant subclone of ovarian carcinoma A2780) cells; experiment: MTS assay, A2780ADR; type: cell-based; details: 48 and 72 hours of exposure, FIG. 14
Source text: (§1) The human cell lines used for MTS assay screening included MG-63 (osteosarcoma), SK-OV-3 (ovarian adenocarcinoma), MDA-MB-231 (breast adenocarcinoma derived from a metastatic site), HCT 116 (colorectal carcinoma), HCT 116/200 (an FdUrd resistant subclone of HCT 116 cells), A2780ADR (a doxorubicin resistant subclone of the ovarian carcinoma A2780), and HUVEC (normal human umbilical vein endothelial cells). All cells were stored in liquid nitrogen until use. MG-63, SK-OV-3, MDA-MB-231, and HCT 116 cell lines were all obtained from ATCC. A2780ADR cells were obtained from Sigma-Aldrich. HCT 116/200 cells were obtained from Dr. Franklin G. Berger from the Center for Colon Cancer Research. HUVEC cells were obtained from Lonza. MG-63 cells were maintained in MEM medium (Corning) supplemented with 10% Fetal Bovine Essence (VWR) and 1% penicillin/streptomycin solution (Corning). […]
(§2) Cells were first grown to approximately 80% confluency within […] tissue culture flasks (VWR). […] Cells were counted using a hemocytometer and their viability was confirmed using trypan blue (Gibco). […]
(§3) After seeding, the cells were incubated for 24 hours at 37° C. and 5% CO2 to allow for cell attachment and renewal of the exponential growth phase. […] The cells were incubated for 2 hours, and the absorbance of each well at 490 nm was measured using a Spectramax 190 microplate reader.

melanoma line SK-MEL-5 = experiment: NCI-60 one-dose screen, SK-MEL-5; type: cell-based; details: 10 μM, 48 hours
Description: (§4) One dose cytotoxicity screening was performed by the NCI-60 screening program of the National Institutes of Health (NIH), which is known in the art and available from the NIH. The NCI-60 panel is a collection of cancer cell lines, from various diverse tumors, which was developed in the 1980s by the National Cancer Institute to aid screening efforts for cytotoxic or cytostatic compounds.
(§5) In these screens 59 cell lines were utilized to determine the cytotoxic effect of the deacetylnemorone. […]
(§6) A control for each cell type was also simultaneously created, which was treated with 100 μL of culture media without deacetylnemorone. […] The bound stain was then dissolved in 10 mM trizma base and the absorbance was read using an automated plate reader at 515 nm.
(§7) Suspension cells were treated in the same fashion with the exception that the cells were fixed once they had settled at the bottom of the wells using 50 μL of 80% TCA. The absorbance of each well was then converted to growth percent using equation 1 (below) where Ti is the average absorbance of the samples treated with a certain concentration of the compound of this invention, Tz represents the average absorbance of the samples fixed at the time the compound of interest was added to the experimental groups, and C is the average absorbance of the media treated control. […]

[2] = test system: 59 cell lines of the NCI-60 panel; experiment: NCI-60 one-dose cytotoxicity screen, 59 cell lines; type: cell-based; details: 10 μM
Description: as §4, §5, §6, §7

[3] = test system: MDA-MB-231 (breast adenocarcinoma) cells; experiment: MTS assay, MDA-MB-231; type: cell-based
Source text: as §1, §2, §3

melanoma cell lines = experiment: NCI-60 one-dose screen, melanoma cell lines; type: cell-based; details: 10 μM, 48 hours; in 6 out of 9 melanoma cell lines
Description: as §4, §5, §6, §7

HUVEC endothelial cells = experiment: Tube formation assay on growth factor reduced Matrigel; type: cell-based, human; details: 8 hours of incubation
Description: Growth factor reduced BD Matrigel (Corning), stored long-term at −20° C., was thawed on ice overnight in a 4° C. refrigerator prior to use. The following day, 50 μL of the thawed Matrigel was added to each well of a pre-chilled 96-well plate and incubated at 37° C. and 5% CO2 for approximately 30 minutes to allow the matrix to form a gel. Next, 100 μL of a cell suspension containing 20,000 HUVEC cells in cell culture media with various concentrations of deacetylnemorone was added to each well. The control consisted of HUVEC cells suspended in endothelial growth media alone. After 8 hours of incubation at 37° C. and 5% CO2, the number of tubes formed between the endothelial cells were quantified using an inverted microscope (Invitrogen EVOS FL Auto at 4× magnification).

[4] = test system: HCT 116 (colorectal carcinoma) cells; experiment: MTS assay, HCT 116; type: cell-based
Source text: as §1, §2, §3

SKMEL5 melanoma cells = experiment: Cell cycle analysis (PI staining, flow cytometry); type: cell-based
Description: The effect of the deacetylnemorone on the cell cycle of SKMEL5 melanoma cells was determined using a PI staining assay. SKMEL5 cells were maintained in RPMI 1640 media supplemented with 10% FBS and 2 mM L-glutamine and incubated at 37° C. and 5% CO2. The cells were seeded in 6 well plates at a density of 300,000 cells per well. After 24 hours, the media was removed and replaced with either fresh media (control) or with media supplemented with 17.3 μM of the deacetylnemorone of FIG. 1. The cells were incubated with this treatment for 72 hours total. At 6, 12, 24, 48, and 72 hours, the cells from two wells each of the control of the treated group were trypsinized, collected in centrifuge tubes, and centrifuged at 2500 rpm for 5 minutes. The supernatant was removed, and the pellet was washed with PBS and centrifuged 2 times. The pellet was then suspended in 500 μL PBS and added 3 mL of 70% ethanol dropwise while vortexing. This mixture was then incubated at 4° C. for 24 hours. Next, the mixture was centrifuged, the supernatant was removed and the pellet was suspended in PBS and stored at 4° C. until all the samples were collected. […]

[5] = test system: MDA-MB-231 breast cancer cells; experiment: In vitro invasion assay (cell-free gap); type: cell-based, human
Description: Cell migration of MDA-MB-231 breast cancer cells was assessed through making a cell-free gap with a Culture Insert 2 well 24 (Ibidi), consisting of two wells that were separated by a wall. A total of 70 μl of cell suspension comprising of 35×10^3 cells was added to each well. Cells were given 24 hours to attach and reach confluency. Culture inserts were then removed and cell debris was washed with PBS. Fresh culture media supplemented with different concentration of the compound of interest was added to the wells and the cells were incubated at 37° C. and 5% CO2 for 26 hours. Images were taken 0, 6, 20, and 26 hours after compound addition using a phase contrast Nikon Eclipse Ti-E inverted microscope. Quantification of invasion was performed by measuring the gap distance for three repetitions and using the following formula,
[formula] where Wn is the width of gap after incubation, and W0 is the initial width right after forming the gap. Tube Formation Assay

[6] = test system: HCT 116/200 (FdUrd resistant subclone of HCT 116) cells; experiment: MTS assay, HCT 116/200; type: cell-based
Source text: as §1, §2, §3

[7] = test system: MG-63 (osteosarcoma) cells; experiment: MTS assay, MG-63; type: cell-based; details: MG-63, 48 and 72 hours of exposure, FIG. 9
Source text: as §1, §2, §3

[8] = test system: SK-OV-3 (ovarian adenocarcinoma) cells; experiment: MTS assay, SK-OV-3; type: cell-based; details: SK-OV-3, 48 and 72 hours of exposure, FIG. 10
Source text: as §1, §2, §3

**Q.** With deacetylnemorone as the substance, how does the “cytotoxicity (percent viability, MTS)” value [1] read?
**A.** significant cytotoxic properties

**Q.** What about the percent growth (melanoma line SK-MEL-5) of the same substance?
**A.** negative percent growth

**Q.** What about the “number of cell lines whose growth was inhibited” value ([2]; 48 hours, 59 cell lines screened) of the same substance?
**A.** 55 of the 59

**Q.** And the “average inhibition of percent growth across all 59 cell lines” value ([2]; after 48 hours)?
**A.** 47%

**Q.** And the “cytotoxicity (percent viability, MTS)” value ([3]; MDA-MB-231, 48 and 72 hours of exposure, FIG. 11)?
**A.** significant cytotoxic properties

**Q.** What about the “lowest concentration at which cell death was indicated (MTS)” value ([3]; breast cancer) of the same substance?
**A.** 10 µg/mL

**Q.** What about the “growth inhibition of melanoma cell lines” value (melanoma cell lines) of the same substance?
**A.** more than 70%

**Q.** What about the “tube formation between HUVEC cells” value (HUVEC endothelial cells; 0.1 μg/mL) of the same substance?
**A.** inhibit tube formation

**Q.** And the “tube formation between HUVEC cells” value (HUVEC endothelial cells; 10 μg/mL)?
**A.** inhibit tube formation

**Q.** And the “cytotoxicity (percent viability, MTS)” value ([4]; HCT-116, 48 and 72 hours of exposure, FIG. 12)?
**A.** significant cytotoxic properties

**Q.** And the “lowest concentration at which cell death was indicated (MTS)” value ([4]; colon cancer)?
**A.** 10 µg/mL

**Q.** And the “percent of cells in S phase” value (SKMEL5 melanoma cells; SKMEL5, after 24 hours, 17.3 μM (method) / 15 μM (figure legend))?
**A.** increase in the percent of cells in S phase

**Q.** And the sub-G1 population (SKMEL5 melanoma cells; SKMEL5, up to 72 hours)?
**A.** low sub-G1 population

**Q.** What about the “invasion of breast cancer cells” value ([5]; 1 μg/mL, after 26 hours) of the same substance?
**A.** significantly inhibited

**Q.** And the “invasion of breast cancer cells” value ([5]; 10 μg/mL, after 26 hours)?
**A.** significantly inhibited

**Q.** What about the “invasion of breast cancer cells” value ([5]; after 20 hours of incubation) of the same substance?
**A.** significantly inhibited

**Q.** And the “cytotoxicity (percent viability, MTS)” value ([6]; HCT 116/200, 48 and 72 hours of exposure, FIG. 13)?
**A.** significant cytotoxic properties

**Q.** What about the “cytotoxic effect in combination with FdUrd (percent viability, cell number)” value ([6]; HCT 116/200, 48 hour exposure, combination with FdUrd, FIG. 16 and 17) of the same substance?
**A.** dose dependent, synergistic cytotoxic effect

**Q.** And the “cytotoxicity (percent viability, MTS)” value [7]?
**A.** significant cytotoxic properties

**Q.** What about the “cytotoxicity (percent viability, MTS)” value [8] of the same substance?
**A.** significant cytotoxic properties
